According to patent US20240415790A1, “A COMPOSITION FOR USE IN THE TREATMENT OF INTERVERTEBRAL DISC HERNIATION” (STAYBLE THERAPEUTICS AB, priority 2020, published 2024):
Several values for one entry are separate records, joined by “and”; a condition that tells them apart may be missing. Identical values can stand only once.

Tested on: NP and disc height of patients' IVDs
Assay: Clinical study, T2-weighted MRI of NP intensity and disc height
Type: in vivo, human
Parameters: key to Individual scoring of change in NP intensity, Assessor No. 1 / Individual scoring of change in NP intensity, Assessor No. 2 / Individual scoring of change in NP intensity, Assessor No. 3 / Individual scoring of change in NP intensity, Assessor No. 4: 1, clear reduction; 0, no change
Conditions: for NP intensity change score at T2-weighted MR imaging, Mean ± SD: score 1 clear reduction, 0 no change, 4 assessors
Procedure: The study was a randomized, double-blinded, placebo-controlled, single ascending dose study with the primary objective to evaluate safety and tolerability following intradiscal injection of LA in Omnipaque or placebo (Omnipaque) in 15 patients with chronic discogenic low back pain. The secondary objective was to assess effects on the NP and disc height using T2-weighted MRI.
All MRI investigations were performed using the same scanner (Siemens 1.5 T Avanto) with the following exceptions: Baseline MRI for one placebo-treated patient and 2 patients given the high dose was acquired in a Siemens Symphony 1.5 T scanner while all other scans were done in the Siemens 1.5 T Avanto scanner. Also, baseline and 3 month MRI were done in the Symphony scanner while the other scans were done in the Avanto scanner in 2 placebo-treated patients and one patient treated with the high dose. T1- and T2-weighted sagittal, coronal, and transversal sections were acquired at 4 mm before and after injection of gadolinium contrast.
Disc height measured as the maximal distance between 2 adjacent endplates and Pfirrmann grade were documented at screening and they were followed throughout the study. Since the Pfirrmann criteria are not sensitive enough to detect minor changes in disc hydration, changes in intensity of the NP at T2-weighted MRI were scored by 4 assessors blind to the group assignment of the patients. The assessors were instructed to score no change as “0” and obvious reduction in intensity as “1”, regardless of time after treatment.
Changes in intensity of the NP at T2-weighted MR imaging were scored as 1, clear reduction and 0, no change. The scoring was done by 4 assessors blind to the group assignment of the patients. Reductions in disc height were observed throughout the study (Table 8).

[1] = LA concentration 30, individual patients and IVDs
[2] = LA concentration 60, individual patients and IVDs
[3] = LA concentration 120, individual patients and IVDs

## CC(O)C(=O)O (stereo not shown) [LA, lactic acid]
LA 30 mg/mL
  NP intensity change score, Median: 0
  NP intensity change score at T2-weighted MR imaging, Mean ± SD: 0.4 ± 0.5
LA 30 mg/mL, 3 months
  Disc height change from baseline (mm) Mean ± SD: 0.3 ± 1.3 mm
LA 30 mg/mL, 6 months
  Disc height change from baseline (mm) Mean ± SD: −0.5 ± 0.7 mm
LA 30 mg/mL, 12 months
  Disc height change from baseline (mm) Mean ± SD: −0.5 ± 0.7 mm
LA 60 mg/mL
  NP intensity change score, Median: 1
  NP intensity change score at T2-weighted MR imaging, Mean ± SD: 1.0 ± 0.0
LA 60 mg/mL, 3 months
  Disc height change from baseline (mm) Mean ± SD: −1.0 ± 0.7 mm
LA 60 mg/mL, 6 months
  Disc height change from baseline (mm) Mean ± SD: −0.8 ± 0.8 mm
LA 60 mg/mL, 12 months
  Disc height change from baseline (mm) Mean ± SD: −1.2 ± 0.8 mm
LA 120 mg/mL
  NP intensity change score, Median: 1
  NP intensity change score at T2-weighted MR imaging, Mean ± SD: 0.9 ± 0.3
LA 120 mg/mL, 3 months
  Disc height change from baseline (mm) Mean ± SD: −1.2 ± 1.1 mm
LA 120 mg/mL, 6 months
  Disc height change from baseline (mm) Mean ± SD: −1.4 ± 1.1 mm
LA 120 mg/mL, 12 months
  Disc height change from baseline (mm) Mean ± SD: −1.8 ± 1.3 mm
[1]
  Individual scoring of change in NP intensity, Assessor No. 1: 0 (2×) and 1 (2×)
  Individual scoring of change in NP intensity, Assessor No. 2: 0 (3×) and 1
  Individual scoring of change in NP intensity, Assessor No. 3: 0 (2×) and 1 (2×)
  Individual scoring of change in NP intensity, Assessor No. 4: 0 (2×) and 1 (2×)
[2]
  Individual scoring of change in NP intensity, Assessor No. 1: 1
  Individual scoring of change in NP intensity, Assessor No. 2: 1
  Individual scoring of change in NP intensity, Assessor No. 3: 1
  Individual scoring of change in NP intensity, Assessor No. 4: 1
[3]
  Individual scoring of change in NP intensity, Assessor No. 1: 1
  Individual scoring of change in NP intensity, Assessor No. 2: 1 (3×) and 0 (2×)
  Individual scoring of change in NP intensity, Assessor No. 3: 1
  Individual scoring of change in NP intensity, Assessor No. 4: 1
Lactic acid 30 mg/mL, 3 months
  % decrease in disc height: +3%
Lactic acid 30 mg/mL, 6 months
  % decrease in disc height: 5%
Lactic acid 30 mg/mL, 12 months
  % decrease in disc height: 5%
Lactic acid 60 mg/mL, 3 months
  % decrease in disc height: 11%
Lactic acid 60 mg/mL, 6 months
  % decrease in disc height: 8%
Lactic acid 60 mg/mL, 12 months
  % decrease in disc height: 13%
Lactic acid 120 mg/mL, 3 months
  % decrease in disc height: 11%
Lactic acid 120 mg/mL, 6 months
  % decrease in disc height: 12%
Lactic acid 120 mg/mL, 12 months
  % decrease in disc height: 16%
patients, after treatment (not shown)
  Change in IVD width: no change in IVD width
